Reference: PMC7736581, “Activation of the IRE1 RNase through remodeling of the kinase front pocket by ATP-competitive ligands” (Nature Communications, 2020)

How the values were obtained:
Assay in all cases: biochemical
Design in all cases: Invitrogen kinase panel: Z'Lyte activity (ATP at Km) or LanthaScreen competitive ATP-site binding, percent inhibition
CAMKK2 = CAMKK2 (Homo sapiens, UniProt Q96RR4)
CaMKII_beta = target: T1, CaMKII_beta (Homo sapiens, UniProt Q13554)
T1 construct: gene CAMK2B

eEF-2K = target: T2, eEF-2K (Homo sapiens, UniProt O00418)
T2 construct: gene EEF2K

NEK6 = NEK6 (Homo sapiens, UniProt Q9HC98)
MEKK2 = target: T3, MEKK2 (Homo sapiens, UniProt Q9Y2U5)
T3 construct: gene MAP3K2

IRR = target: T4, IRR (Homo sapiens, UniProt P14616)
T4 construct: gene INSRR

WNK2 = WNK2 (Homo sapiens, UniProt Q9Y3S1)
Sequence of WNK2 (Q9Y3S1 whole entry): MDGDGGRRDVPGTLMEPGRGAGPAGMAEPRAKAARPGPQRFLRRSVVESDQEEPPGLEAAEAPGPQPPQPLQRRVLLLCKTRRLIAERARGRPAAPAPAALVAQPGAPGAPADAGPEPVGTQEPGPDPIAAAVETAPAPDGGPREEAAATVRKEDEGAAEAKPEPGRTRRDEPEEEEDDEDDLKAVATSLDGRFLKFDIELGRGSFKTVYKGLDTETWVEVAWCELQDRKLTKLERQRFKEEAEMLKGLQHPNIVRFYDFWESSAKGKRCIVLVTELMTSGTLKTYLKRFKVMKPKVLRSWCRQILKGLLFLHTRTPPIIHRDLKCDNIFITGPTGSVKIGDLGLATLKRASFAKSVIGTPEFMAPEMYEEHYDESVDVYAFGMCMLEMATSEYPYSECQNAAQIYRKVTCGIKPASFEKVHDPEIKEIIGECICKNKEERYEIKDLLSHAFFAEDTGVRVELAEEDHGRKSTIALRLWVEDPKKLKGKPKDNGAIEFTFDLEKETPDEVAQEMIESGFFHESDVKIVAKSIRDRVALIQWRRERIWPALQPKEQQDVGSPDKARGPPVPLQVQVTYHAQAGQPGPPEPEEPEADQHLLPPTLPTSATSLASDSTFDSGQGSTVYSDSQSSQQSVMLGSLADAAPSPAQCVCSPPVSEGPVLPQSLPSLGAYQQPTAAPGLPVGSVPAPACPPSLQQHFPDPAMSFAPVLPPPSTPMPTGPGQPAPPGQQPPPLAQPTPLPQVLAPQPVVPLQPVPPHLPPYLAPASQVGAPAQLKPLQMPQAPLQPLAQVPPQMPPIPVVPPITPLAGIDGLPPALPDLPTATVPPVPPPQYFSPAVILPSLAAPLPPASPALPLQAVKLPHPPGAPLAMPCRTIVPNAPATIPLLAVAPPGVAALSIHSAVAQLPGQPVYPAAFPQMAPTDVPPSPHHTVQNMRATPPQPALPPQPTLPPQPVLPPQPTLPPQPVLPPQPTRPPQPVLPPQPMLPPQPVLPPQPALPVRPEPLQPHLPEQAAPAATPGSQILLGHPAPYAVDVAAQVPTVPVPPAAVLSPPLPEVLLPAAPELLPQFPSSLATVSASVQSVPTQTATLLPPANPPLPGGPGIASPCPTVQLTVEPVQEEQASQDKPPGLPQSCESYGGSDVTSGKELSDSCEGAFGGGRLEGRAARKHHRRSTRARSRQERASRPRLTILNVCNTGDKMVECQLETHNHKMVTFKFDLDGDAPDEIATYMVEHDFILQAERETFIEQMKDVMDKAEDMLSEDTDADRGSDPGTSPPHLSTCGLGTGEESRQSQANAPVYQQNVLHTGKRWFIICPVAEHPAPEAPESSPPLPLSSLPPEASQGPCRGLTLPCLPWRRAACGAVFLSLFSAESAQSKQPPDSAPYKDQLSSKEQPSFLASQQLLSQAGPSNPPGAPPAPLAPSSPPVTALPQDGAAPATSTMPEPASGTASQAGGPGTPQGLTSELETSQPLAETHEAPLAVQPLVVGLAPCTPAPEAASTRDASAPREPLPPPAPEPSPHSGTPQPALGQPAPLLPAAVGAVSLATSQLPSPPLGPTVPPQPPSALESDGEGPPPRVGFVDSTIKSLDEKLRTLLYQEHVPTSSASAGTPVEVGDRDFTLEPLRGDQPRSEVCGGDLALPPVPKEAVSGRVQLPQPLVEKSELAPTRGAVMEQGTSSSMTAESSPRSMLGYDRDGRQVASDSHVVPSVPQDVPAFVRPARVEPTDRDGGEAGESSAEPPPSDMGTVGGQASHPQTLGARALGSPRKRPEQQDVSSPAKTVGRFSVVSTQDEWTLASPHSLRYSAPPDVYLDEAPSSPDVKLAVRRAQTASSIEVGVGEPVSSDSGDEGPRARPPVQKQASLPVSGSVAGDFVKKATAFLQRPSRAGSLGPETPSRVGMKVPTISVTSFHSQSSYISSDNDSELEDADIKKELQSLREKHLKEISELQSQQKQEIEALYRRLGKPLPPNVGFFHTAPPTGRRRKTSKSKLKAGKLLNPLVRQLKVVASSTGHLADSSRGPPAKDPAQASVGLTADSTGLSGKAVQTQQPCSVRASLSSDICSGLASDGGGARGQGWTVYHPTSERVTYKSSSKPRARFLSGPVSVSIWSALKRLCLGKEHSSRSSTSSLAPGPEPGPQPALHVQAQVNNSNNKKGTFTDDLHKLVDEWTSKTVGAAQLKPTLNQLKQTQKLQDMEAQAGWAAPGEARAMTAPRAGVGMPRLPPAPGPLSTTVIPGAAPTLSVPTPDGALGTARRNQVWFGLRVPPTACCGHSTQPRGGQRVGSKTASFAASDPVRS

SGK1 = SGK1 (Homo sapiens, UniProt O00141)
ARK5 = target: T5, ARK5 (Homo sapiens, UniProt O60285)
T5 construct: gene NUAK1

Bmx = Bmx (Homo sapiens, UniProt P51813)
LIMK1 = LIMK1 (Homo sapiens, UniProt P53667)
DAPK1 = DAPK1 (Homo sapiens, UniProt P53355)
JAK3 = JAK3 (Homo sapiens, UniProt P52333)
Sequence of JAK3 (P52333 whole entry): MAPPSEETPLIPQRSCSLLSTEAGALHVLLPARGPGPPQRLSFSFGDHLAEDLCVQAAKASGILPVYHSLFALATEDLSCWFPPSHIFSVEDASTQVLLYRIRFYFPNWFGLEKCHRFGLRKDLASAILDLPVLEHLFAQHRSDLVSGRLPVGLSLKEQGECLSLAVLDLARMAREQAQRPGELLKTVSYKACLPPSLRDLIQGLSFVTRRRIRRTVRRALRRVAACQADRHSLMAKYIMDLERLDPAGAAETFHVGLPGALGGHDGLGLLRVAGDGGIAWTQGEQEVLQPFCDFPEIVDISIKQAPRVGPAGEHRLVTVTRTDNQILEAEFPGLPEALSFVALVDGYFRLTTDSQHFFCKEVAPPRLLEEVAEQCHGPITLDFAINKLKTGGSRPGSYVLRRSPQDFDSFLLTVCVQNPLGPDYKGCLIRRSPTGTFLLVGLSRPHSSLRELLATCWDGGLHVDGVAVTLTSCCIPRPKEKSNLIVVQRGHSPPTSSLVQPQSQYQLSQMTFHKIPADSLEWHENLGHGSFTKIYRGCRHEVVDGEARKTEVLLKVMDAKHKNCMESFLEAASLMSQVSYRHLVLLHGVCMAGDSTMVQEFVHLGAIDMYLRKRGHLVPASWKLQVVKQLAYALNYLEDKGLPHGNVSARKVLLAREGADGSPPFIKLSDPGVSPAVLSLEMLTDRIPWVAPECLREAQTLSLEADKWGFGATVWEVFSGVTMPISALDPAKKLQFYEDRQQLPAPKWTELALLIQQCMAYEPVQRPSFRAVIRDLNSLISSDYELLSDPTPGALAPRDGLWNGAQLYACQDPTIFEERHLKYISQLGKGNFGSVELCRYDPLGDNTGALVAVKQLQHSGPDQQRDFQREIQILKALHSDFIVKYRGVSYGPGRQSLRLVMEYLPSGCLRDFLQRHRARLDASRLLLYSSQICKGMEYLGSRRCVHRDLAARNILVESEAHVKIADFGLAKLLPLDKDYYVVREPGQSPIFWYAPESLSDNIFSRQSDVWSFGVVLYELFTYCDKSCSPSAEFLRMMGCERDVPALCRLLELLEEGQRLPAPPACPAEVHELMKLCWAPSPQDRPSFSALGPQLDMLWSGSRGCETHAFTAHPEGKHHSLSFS

JAK2 = JAK2 (Homo sapiens, UniProt O60674)
CK1_alpha1 = target: T6, CK1_alpha1 (Homo sapiens, UniProt P48729)
T6 construct: gene CSNK1A1

MYLK3(caMLCK) = target: T7, MYLK3(caMLCK) (Homo sapiens, UniProt Q32MK0)
T7 construct: caMLCK

MELK = MELK (Homo sapiens, UniProt Q14680)
MST2 = target: T8, MST2 (Homo sapiens, UniProt Q13188)
T8 construct: gene STK3
T8 sequence (Q13188 whole entry): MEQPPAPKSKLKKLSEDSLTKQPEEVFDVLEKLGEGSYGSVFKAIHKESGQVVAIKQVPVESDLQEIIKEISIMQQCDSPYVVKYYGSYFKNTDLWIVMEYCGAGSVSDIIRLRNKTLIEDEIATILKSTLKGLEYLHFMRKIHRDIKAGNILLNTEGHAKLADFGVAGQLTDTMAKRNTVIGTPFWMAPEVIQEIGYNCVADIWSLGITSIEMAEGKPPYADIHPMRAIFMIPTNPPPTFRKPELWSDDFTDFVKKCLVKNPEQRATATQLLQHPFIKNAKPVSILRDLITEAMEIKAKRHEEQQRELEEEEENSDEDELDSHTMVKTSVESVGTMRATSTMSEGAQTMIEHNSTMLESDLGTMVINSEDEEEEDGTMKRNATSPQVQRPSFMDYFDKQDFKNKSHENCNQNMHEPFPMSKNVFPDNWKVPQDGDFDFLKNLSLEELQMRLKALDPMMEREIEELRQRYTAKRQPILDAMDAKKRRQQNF

TEC = TEC (Homo sapiens, UniProt P42680)
DYRK3 = DYRK3 (Homo sapiens, UniProt O43781)
RIPK2 = RIPK2 (Homo sapiens, UniProt O43353)
GRK6 = GRK6 (Homo sapiens, UniProt P43250)
Sequence of GRK6 (P43250 whole entry): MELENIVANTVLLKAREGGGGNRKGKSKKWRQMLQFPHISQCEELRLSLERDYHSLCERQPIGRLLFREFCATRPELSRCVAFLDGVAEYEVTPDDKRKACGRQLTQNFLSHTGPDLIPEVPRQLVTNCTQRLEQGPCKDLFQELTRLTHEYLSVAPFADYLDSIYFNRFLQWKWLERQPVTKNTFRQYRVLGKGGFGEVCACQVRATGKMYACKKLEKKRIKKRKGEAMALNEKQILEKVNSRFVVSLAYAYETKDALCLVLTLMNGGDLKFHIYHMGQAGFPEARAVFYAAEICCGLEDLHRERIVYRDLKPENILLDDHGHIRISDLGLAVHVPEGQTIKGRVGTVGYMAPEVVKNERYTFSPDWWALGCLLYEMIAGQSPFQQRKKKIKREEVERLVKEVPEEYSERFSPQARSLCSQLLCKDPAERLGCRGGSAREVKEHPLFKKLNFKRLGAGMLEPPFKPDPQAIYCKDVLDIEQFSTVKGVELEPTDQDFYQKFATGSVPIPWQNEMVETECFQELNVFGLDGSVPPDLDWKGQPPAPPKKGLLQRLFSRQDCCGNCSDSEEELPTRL

Axl = Axl (Homo sapiens, UniProt P30530)
CK1_gamma2 = target: T9, CK1_gamma2 (Homo sapiens, UniProt P78368)
T9 construct: gene CSNK1G2
T9 sequence (P78368 whole entry): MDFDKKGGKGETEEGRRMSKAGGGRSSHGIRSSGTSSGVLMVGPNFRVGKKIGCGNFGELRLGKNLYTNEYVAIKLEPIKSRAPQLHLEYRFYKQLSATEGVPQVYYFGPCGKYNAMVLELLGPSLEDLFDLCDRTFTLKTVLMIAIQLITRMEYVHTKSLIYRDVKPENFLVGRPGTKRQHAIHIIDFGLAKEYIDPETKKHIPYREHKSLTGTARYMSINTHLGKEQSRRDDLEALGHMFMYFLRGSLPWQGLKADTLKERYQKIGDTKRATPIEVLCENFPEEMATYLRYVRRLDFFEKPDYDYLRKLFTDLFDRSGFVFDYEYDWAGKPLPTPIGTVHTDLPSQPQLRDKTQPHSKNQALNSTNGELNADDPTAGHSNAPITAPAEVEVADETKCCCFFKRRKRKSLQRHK

PIM1 = PIM1 (Homo sapiens, UniProt P11309)

Row | Structure (SMILES) | inhibition at 1 µM (CAMKK2) [%] | inhibition at 1 µM (CaMKII_beta) [%] | inhibition at 1 µM (eEF-2K) [%] | inhibition at 1 µM (NEK6) [%] | inhibition at 1 µM (MEKK2) [%] | inhibition at 1 µM (IRR) [%] | inhibition at 1 µM (WNK2) [%] | inhibition at 1 µM (SGK1) [%] | inhibition at 1 µM (ARK5) [%] | inhibition at 1 µM (Bmx) [%] | inhibition at 1 µM (LIMK1) [%] | inhibition at 1 µM (DAPK1) [%] | inhibition at 1 µM (JAK3) [%] | inhibition at 1 µM (JAK2) [%] | inhibition at 1 µM (CK1_alpha1) [%] | inhibition at 1 µM (MYLK3(caMLCK)) [%] | inhibition at 1 µM (MELK) [%] | inhibition at 1 µM (MST2) [%] | inhibition at 1 µM (TEC) [%] | inhibition at 1 µM (DYRK3) [%] | other results
1 | CCOC(=O)Nc1cccc2c(Oc3ncccc3-c3ccnc(N[C@H]4CCCNC4)n3)c(C)ccc12 [G-1749] | -0.5 | -2 | 5 | 2.5 | -0.5 | -0.5 | -1 | 5.5 | 12 | -4 | 4.5 | -4 | -15.5 | 2.5 | -1.5 | 10.5 | 33 | 5.5 | 4 | 3.5 | inhibition at 1 µM (RIPK2): 13.5%; inhibition at 1 µM (GRK6): -1%; inhibition at 1 µM (Axl): -1.5%; inhibition at 1 µM (CK1_gamma2): -4.5%; inhibition at 1 µM (PIM1): -5.5%
2 | CC#CC(=O)Nc1cccc2c(Oc3ncccc3-c3ccnc(N[C@H]4CCCNC4)n3)c(C)ccc12 [G-7658] | -0.5 | 0.5 | 5 | 17.5 | 1 | 0 | -2.5 | 3.5 | 8 | -4.5 | 15 | -4 | -15 | 3 | -0.5 | 4.5 | 19.5 | 2.5 | 3 | 1 | inhibition at 1 µM (RIPK2): 27.5%; inhibition at 1 µM (GRK6): 1.5%; inhibition at 1 µM (Axl): -1%; inhibition at 1 µM (CK1_gamma2): -4.5%; inhibition at 1 µM (PIM1): -6%
